Results from patent publication US9603876B2, “Compositions and methods for restoring gastrointestinal microbiota following antibiotic treatment” (New York University, priority 2008, dated 2017).

Assays:
Format in all cases: in vivo, C57/B6 mice
[1] = system: bacterial populations of cecal contents; test: RAPD-PCR characterization of the microbial population in cecal contents; conditions: DNA from cecal contents; primers 1254, OPL-02, OPL-12
Procedure: (§1) Approximately 10 mg of fecal or cecal samples were suspended in a solution containing 500 μl of extraction buffer (200 mM Tris (pH 8.0), 200 mM NaCl, 20 mM EDTA), 210 μl of 20% SDS, 500 μl of a mixture of phenol:chloroform (pH 7.9, 24:24), and 500 μl of a slurry of 0.1 mm-diameter zirconia beads. Cells were lysed by mechanical disruption with a bead beater set on high for 2 min at room temperature, followed by extraction with phenol:chloroform (pH 7.9, 24:24), and precipitation with isopropanol. After the sample was suspended in 100 μl of TE buffer, the extraction products were further purified using a modified protocol from the ExtractMaster Fecal DNA extraction kit (Epicentre Technologies, Madison Wis.). Residual protein was precipitated using the Protein Precipitation reagent and inhibitors were removed through an Inhibitor Removal Resin spin column. The final product was suspended in 100 μl of TE buffer.
Characterization of the microbial population in the fecal samples was performed using random amplified polymorphic DNA PCR(RAPD-PCR). […] The gels were stained with ethidium bromide and imaging was analyzed using imaged. […]
The positive control (+) was DNA from P. acnes strain VPI 0389. […] The letters A, B, C over columns C10, P1, and P2, respectively, were analyzed be measuring luminescence (see FIGS. 9A-B). […]

[2] = system: Bacteroidetes and Firmicutes in the cecal microbiota; test: Phylum-level analysis of cecal bacterial populations by 454 sequencing of 16S rRNA V3 region; conditions: cecal contents, Mann-Whitney U-test
Procedure: Approximately 10 mg of fecal or cecal samples were suspended in a solution containing 500 μl of extraction buffer (200 mM Tris (pH 8.0), 200 mM NaCl, 20 mM EDTA), 210 μl of 20% SDS, 500 μl of a mixture of phenol:chloroform (pH 7.9, 24:24), and 500 μl of a slurry of 0.1 mm-diameter zirconia beads. Cells were lysed by mechanical disruption with a bead beater set on high for 2 min at room temperature, followed by extraction with phenol:chloroform (pH 7.9, 24:24), and precipitation with isopropanol. […]
Phylum-level analysis of bacterial populations in […] mice. […] Mouse cecal contents were analyzed by 454 pryosequencing (Roche). […] For this experiment, the sequencing run produced 555,233 barcoded sequences with an average read length of 188±2.5 base pairs, an average read/barcode of 5784±676, and a read quality of 35. […] Order-level sequence data were summated to the phylum level and analyzed. […]
In another analysis, the proportion of all of the Eubacteria detected that were represented by the Firmicutes was examined. As shown in FIGS. 13A-B, % body fat measured by densitometry of the control and STAT mice (A) correlates with the ratio of Firmicute/Eubacteria as determined at the family level by 454 sequencing (B). […]

[3] = Body composition (fat mass, lean mass, % body fat, bone mineral density) by DEXA in sub-therapeutic antibiotic treated (STAT) mice; conditions: at 6 to 9 weeks, sub-therapeutic dose in drinking water, vs control mice
From the text: C57/B6 mice were obtained at weaning (21 days) from Jackson Laboratories (Bar Harbor, Me.). They were weighed and then distributed in cages so that the mean weights of the mice in each cage were equal. The mice were then allowed to adjust to the NYU animal facility. At day 23 of life, the antibiotic-exposure experiment began. Animals were allowed ad libitum access to food and water and maintained with a 12-hour light/dark cycle. The mice were fed standard laboratory chow (Purina Mills International Diet # 5001). These conditions were continued until the time of sacrifice.
Mice were given standard water (pH 6.8) or water containing the following antimicrobial agents (at sub-therapeutic levels) in groups of 5-10 mice per experimental condition.
Body composition (fat mass, lean mass, percent [%] body fat) was determined using dual energy X-ray absorptiometry (DEXA) with a Lunar PIXImus II mouse densitometer (PIXImus, Fitchburg, Wis.) at the time of sacrifice. Each mouse was scanned individually. Data collected from the scan included fat and lean body mass, percent body fat, and bone mineral density.
Since maximal growth of mice in these experiments was during the first 2 weeks after weaning, a group of mice were sacrificed at two weeks, and bone mineral density (BMD) and fat phenotypes assessed. […]

[4] = system: Butyryl CoA transferase (BCoAT)-encoding genes; test: Butyryl CoA transferase (BCoAT) gene qPCR on cecal specimens; conditions: cecal samples
Procedure: as §1
To test the effect of colonic microbiota on butyrate metabolism, a PCR assay was performed to detect genes encoding an enzyme, Butyryl CoA transferase (BCoAT), regardless of the taxonomic origin of the gene. The following primers were used: BCoATscrF […] (SEQ ID NO: 11) and BCoATscrR […] (SEQ ID NO: 12). BCoAT plays a central role in butyrate metabolism, which is an important short-chain fatty acid (SCFA) in colonic metabolism and provides energy to colonocytes (FIG. 14). […]

[5] = system: total fecal eubacterial and fungal levels; test: Total microbial counts in fecal pellets by qPCR (16S rRNA, fungal ITS2)
Procedure: At approximately weekly intervals, a fresh fecal pellet was collected from each individual mouse and frozen at −80° C. until DNA could be extracted. At the time of sacrifice, a fecal pellet was collected, as well as the cecal contents.
as §1, with “Residual protein was precipitated using the Protein Precipitation reagent and inhibitors were removed through an Inhibitor Removal Resin spin column. The final product was suspended in 100 μl of TE buffer.” left out
Analysis of total microbial counts in STAT Mice. […] This possibility was addressed by examining total fecal eubacterial levels in penicillin-treated and control mice by a standardized quantitative PCR (qPCR) using primers […] […] Total fungal levels were determined by qPCR using primers directed to the conserved ITS2 region in the fungal rrn operon ITS1F […] […]

In the case of CN[C@H](CC(C)C)C(=O)N[C@H]1C(=O)N[C@@H](CC(N)=O)C(=O)N[C@H]2C(=O)N[C@H]3C(=O)N[C@H](C(=O)N[C@H](C(=O)O)c4cc(O)cc(O)c4-c4cc3ccc4O)[C@H](O)c3ccc(c(Cl)c3)Oc3cc2cc(c3O[C@@H]2O[C@H](CO)[C@@H](O)[C@H](O)[C@H]2O[C@H]2C[C@](C)(N)[C@H](O)[C@H](C)O2)Oc2ccc(cc2Cl)[C@H]1O [vancomycin, Vancomycin], the “RAPD-PCR products compared to control mice” value [1] is reported as “varying sets of bands” and the “Firmicutes and B/F ratio compared to the controls” value [2] is reported as “statistically significant”.

With CN(C)[C@@H]1C(O)=C(C(N)=O)C(=O)[C@@]2(O)C(O)=C3C(=O)c4c(O)ccc(Cl)c4[C@@](C)(O)[C@H]3C[C@@H]12 [chlortetracycline, Chlortetracycline] the “more fat mass than controls (normalized mean fat mass)” value [3] was 8.1±3.4%.

For Penicillin, the “BCoAT densities compared to controls” value [4] was “increase”, the “number of copies of bacterial or fungal rrn elements vs control” value [5] was “no significant difference” and the “more fat mass than controls (normalized mean fat mass)” value [3] was 22.9±8.1%. For the same compound, the “RAPD-PCR products compared to control mice” value [1] was “clear differences”.
